Measurements from US20090305994A1, “Compounds Modulating Vegf Receptor and Uses Thereof” (priority 2005, published 2009).
No end group written: not given here.

B1: human recombinant VEGF: Human recombinant VEGF obtained from R&D, used in Example 2 on HUVEC (protein)
chain: APMAEGGGQNHHEVVKFMDVYQRSYCHPIETLVDIFQEYPDEIEYIFKPSCVPLMRCGGCCNDEGLECVPTEESNITMQIMRIKPHQGQHIGEMSFLQHNKCECRPKKDRARQENPCGPCSERRKHLFVQDPQTCKCSCKNTDSRCKARQLELNERTCRCDKPRR

Key:
[1] = system: HUVEC; test: Analysis of caspase 3 activity in HUVEC deprived of FBS; assay type: cell-based, human; conditions: VEGF 20 ng/ml plus peptide 20 ng/ml, 4 h
Method: HUVE cells (1×10^4/cm2) were incubated in medium without FBS, in the absence or presence of VEGF (20 ng/ml) and QK (5 ng/ml), at 37° C. in a 5% CO2 atmosphere. After 4 h, caspase 3 activity was determined. Results are expressed as mean values of triplicates.
HUVE cells (1×10^4/cm2) were incubated in medium without FBS, in the absence or presence of VEGF (20 ng/ml) and the indicated peptides (20 ng/ml), at 37° C. in a 5% CO2 atmosphere. After 4 h, caspase 3 activity was determined. Results are expressed as mean values of triplicates.
(§1) Analysis of caspase 3 activity—Cells (2×104) were lysed in a buffer containing Hepes 50 mM, DTT 1 mM, EDTA 0.1 mM, NP-40 0.1%, CHAPS 0.1% and protein quantitation determined. Protein aliquots (20 μg) were incubated with 20 μM Ac-DEVD-AMC (Pharmingen, San Diego, Calif.) in a buffer containing Hepes 50 mM, DTT 1 mM, EDTA 0.1 mM, NP-40 0.1%, CHAPS 0.1%, at 37° C. for 3 h. Caspase 3 activity was determined in the cytosolic extracts by analysing the release of 7-amino-4-methylcoumarin (AMC) from N-acetyl-DEVD-AMC (Thornberry N A, et al. Nature 1992; 356:768-74); the release of AMC was monitored in a spectrofluorometer with an excitation wavelength of 380 nm and emission wavelength of 440 nm.
as §1, with “356: 768-74);” for “356:768-74);”

[2] = system: HUVEC cells; test: Binding of fluorescein-conjugated MA peptide to HUVEC cells (flow cytometry); design: species or system human; conditions: 500 nM MA peptide, increasing amount of VEGF, 4° C.
Method: HUVE cells (1×10^4/cm2) were incubated with 500 nM MA peptide conjugated with fluorescein and competed with increasing amount of VEGF at 30 min at 4° C. in the dark. Then, cell fluorescence was analyzed by flow cytometry.
Fluorescence—Cells (3×105) were incubated with saturating amounts of FITC-conjugated and the other indicated reagents, 5 min at 4° C. in the dark. After washing with PBS, the cells were resuspended in PBS and analyzed with a FACScan (Becton Dickinson) flow cytometer.
Binding of MA peptide to HUVEC cells. To verify that MA peptide bound to HUVEC cells, we incubated the cells with MA or a scrambled peptide conjugated with fluorescein and analyze the binding by FACS.

Row | Molecule | effect on VEGF anti-apoptotic activity (caspase 3) [1] | competition with fluorescein-conjugated MA peptide on HUVEC [2]
1 | KLTWMELYQLKYKGI (KLTWMELYQLKYKGI-NH2) [MK] | partially inhibited the effect of the growth factor | –
2 | B1 | – | appeared to compete with MA peptide
